According to ChEMBL document CHEMBL1126549, “A novel series of selective, non-peptide inhibitors of angiotensin II binding to the AT2 site” (J Med Chem, 1993):

Legend:
[1] = target: T1, Angiotensin II receptor (AT-1) type-1 (Rattus norvegicus, UniProt P29089+P25095); test: Binding affinity towards Angiotensin II receptor, type 1 in rat isolated adrenal cortical microsomes; set-up: species or system Microsome
T1 sequence (P29089 whole entry): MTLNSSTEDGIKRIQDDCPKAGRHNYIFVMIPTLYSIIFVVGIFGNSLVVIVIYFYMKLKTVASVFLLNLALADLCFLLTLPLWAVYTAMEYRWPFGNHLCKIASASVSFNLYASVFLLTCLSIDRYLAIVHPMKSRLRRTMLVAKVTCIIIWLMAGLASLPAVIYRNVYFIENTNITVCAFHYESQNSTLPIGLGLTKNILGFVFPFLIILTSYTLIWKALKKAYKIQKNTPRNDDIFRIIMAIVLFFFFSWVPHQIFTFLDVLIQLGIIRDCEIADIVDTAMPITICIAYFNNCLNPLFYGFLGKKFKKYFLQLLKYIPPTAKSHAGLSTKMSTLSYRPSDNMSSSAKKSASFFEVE
T1 sequence (P25095 whole entry): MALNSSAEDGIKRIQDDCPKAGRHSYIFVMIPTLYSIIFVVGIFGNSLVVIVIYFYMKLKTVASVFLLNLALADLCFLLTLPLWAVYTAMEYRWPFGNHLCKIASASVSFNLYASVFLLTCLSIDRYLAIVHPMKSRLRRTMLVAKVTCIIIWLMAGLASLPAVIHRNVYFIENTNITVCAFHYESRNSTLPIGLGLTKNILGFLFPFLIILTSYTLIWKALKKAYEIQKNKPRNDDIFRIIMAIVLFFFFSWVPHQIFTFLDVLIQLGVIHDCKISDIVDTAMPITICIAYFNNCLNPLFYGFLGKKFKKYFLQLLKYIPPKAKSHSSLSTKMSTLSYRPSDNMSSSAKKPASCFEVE

[2] = target: T2, Type-2 angiotensin II receptor (Rattus norvegicus, UniProt P35351); test: Binding affinity towards Angiotensin II receptor, type 2 in rat isolated adrenal medullary microsomes; set-up: species or system Adrenal medulla, Microsome
T2 sequence (P35351 whole entry): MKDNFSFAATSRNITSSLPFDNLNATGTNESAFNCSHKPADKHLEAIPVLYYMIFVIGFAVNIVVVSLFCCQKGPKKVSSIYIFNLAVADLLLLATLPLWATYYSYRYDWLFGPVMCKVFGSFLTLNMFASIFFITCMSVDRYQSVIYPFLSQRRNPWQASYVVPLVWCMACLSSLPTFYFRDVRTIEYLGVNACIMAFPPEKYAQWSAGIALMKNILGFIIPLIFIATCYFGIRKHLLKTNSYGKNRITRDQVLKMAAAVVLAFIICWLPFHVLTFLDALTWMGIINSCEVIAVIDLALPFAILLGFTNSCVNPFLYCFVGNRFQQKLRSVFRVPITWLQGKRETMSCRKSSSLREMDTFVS

[3] = target: T2, Type-2 angiotensin II receptor; test: Binding affinity towards angiotensin II AT2 receptor subtype was determined using rat isolated adrenal […] microsomes

IC50 [1] [nM] | IC50 [2] [nM] | IC50 [3] [nM] | SMILES
4000 | 80 | – | O=C(O)C1Cc2c(Cc3ccccc3)cccc2CN1C(=O)C(c1ccccc1)c1ccccc1 (stereo in doubt; 23)
> 10000 | 5000 | – | COC(=O)C1Cc2c(C)cccc2CN1C(=O)C(c1ccccc1)c1ccccc1 (centres undefined)
10000 | 90 | – | O=C(O)C1Cc2c(Cc3ccccc3)cccc2CN1C(=O)C(c1ccccc1)c1ccccc1 (stereo in doubt; 21)
> 10000 | 7000 | – | COC(=O)C1Cc2c(Cc3ccccc3)cccc2CN1C(=O)C(c1ccccc1)c1ccccc1 (centres undefined)
– | 70 | – | O=C(O)C1Cc2c(Cc3ccccc3)cccc2CN1C(=O)C(c1ccccc1)c1ccccc1 (stereo in doubt; 22)
> 10000 | 40 | – | O=C(O)C1Cc2c(cccc2-c2ccccc2)CN1C(=O)C(c1ccccc1)c1ccccc1 (centres undefined)
> 10000 | 2000 | – | COC(=O)C1Cc2c(cccc2-c2ccc(OC)cc2)CN1C(=O)C(c1ccccc1)c1ccccc1 (centres undefined)
10000 | 40 | – | COc1ccc(-c2cccc3c2CC(C(=O)O)N(C(=O)C(c2ccccc2)c2ccccc2)C3)cc1 (centres undefined)
> 10000 | 2000 | – | COC(=O)C1Cc2c(cccc2-c2ccccc2)CN1C(=O)C(c1ccccc1)c1ccccc1 (centres undefined)

The next lines start with the compound.

SMILES | IC50 [1] [nM] | IC50 [2] [nM] | IC50 [3] [nM]
COc1ccc(Cc2cccc3c2CC(C(=O)O)N(C(=O)C(c2ccccc2)c2ccccc2)C3)cc1C (centres undefined) | 5000 | 100 | –
O=C(O)C1Cc2cc(O)ccc2CN1C(=O)C(c1ccccc1)c1ccccc1 (centres undefined) | > 10000 | 600 | –
O=C(O)C1Cc2cc(Oc3ccccc3)ccc2CN1C(=O)C(c1ccccc1)c1ccccc1 (centres undefined) | > 10000 | 60 | –
O=C(O)C1Cc2ccccc2CN1C(=O)C(c1ccccc1)c1ccccc1 (centres undefined) | > 30000 | 2500 | –
Cc1cccc2c1CC(C(=O)O)N(C(=O)C(c1ccccc1)c1ccccc1)C2 (centres undefined) | > 10000 | 300 | –
CN(C(=O)N1Cc2ccc(Oc3ccccc3)cc2CC1C(=O)O)c1ccccc1 (centres undefined) | > 10000 | 300 | –
O=C(O)C1Cc2cc(-c3ccccc3)ccc2CN1C(=O)C(c1ccccc1)c1ccccc1 (centres undefined) | > 10000 | 30 | –
CCCCCc1cccc2c1CC(C(=O)O)N(C(=O)C(c1ccccc1)c1ccccc1)C2 (centres undefined) | > 10000 | 40 | –
COc1ccc(Cc2cccc3c2CC(C(=O)O)N(C(=O)N(C)c2ccccc2)C3)cc1 (centres undefined) | > 10000 | 400 | –
COc1ccc(-c2cccc3c2CC(C(=O)O)N(C(=O)C(c2ccccc2)c2ccccc2)C3)cc1C (centres undefined) | > 10000 | 70 | –
COc1ccc(Cc2cccc3c2CC(C(=O)O)N(C(=O)C(c2ccccc2)c2ccccc2)C3)cc1 (centres undefined) | 7000 | 90 | –
COc1ccc(Cc2cccc3c2CC(C(=O)O)N(C(=O)N(c2ccccc2)c2ccccc2)C3)cc1 (centres undefined) | 10000 | 200 | –
COc1ccc(Cn2cnc3c2C[C@@H](C(=O)O)N(C(=O)C(c2ccccc2)c2ccccc2)C3)cc1C | – | – | 10
COC(=O)C1Cc2c(Cc3ccc(OC)cc3)cccc2CN1C(=O)C(c1ccccc1)c1ccccc1 (centres undefined) | > 10000 | > 10000 | –
